Test results taken from ChEMBL document CHEMBL5344441, “Discovery and Preclinical Pharmacology of NX-2127, an Orally Bioavailable Degrader of Bruton's Tyrosine Kinase with Immunomodulatory Activity for the Treatment of Patients with B Cell Malignancies” (J Med Chem, 2024).
Calls of active or inactive are those of the source. The rule behind the calls is not given here.

Key:
[1] = molecular target: Cereblon/Ikaros (Homo sapiens, UniProt Q96SW2+Q13422); test: In vivo protac activity at CRBN/IKZF1 in CB17-SCID mouse xenografted with human TMD8 cells assessed as degradation of IKZF1 protein in tumor at 10 to 90 mg/kg,po administration for 25 days by flow cytomtery; assay type: functional, organism-based; conditions: dose 10-90 mg/kg, time 25.0 day
[2] = test system: T-cell; test: Activation of T-cellular function in anti-CD3/anti-CD28 activated human T cell assessed as increase in IL-2 secretion at 0.001 to 100 nM incubated for 24 hrs followed by anti-CD3/anti-CD28 stimulation by ELISA; assay type: functional, cell-based; conditions: dose 0.001-100 nM
[3] = test system: TMD8; test: Antitumor activity against human TMD8 cells expressing BTK C481S mutant xenografted in CB17-SCID mouse assessed as tumor growth inhibition at 30 mg/kg,po administration for 25 days; assay type: functional; conditions: TMD8, 600 h, time 25 day, read-out: TGI
[4] = Cmax in mouse at 10 mg/kg,po; assay type: ADME, organism-based; parameters: dose 10 mg/kg, route po; conditions: in vivo
[5] = molecular target: Tyrosine-protein kinase BTK (Homo sapiens, UniProt Q06187); test: Binding affinity to BTK (unknown origin) assessed as dissociation constant by surface plasmon resonance assay
[6] = AUClast in cynomolgus monkey at 10 mg/kg,po administration for 1 day; assay type: ADME, organism-based, Macaca fascicularis; parameters: dose 10 mg/kg, time 1 day, route po; conditions: in vivo
[7] = molecular target: Protein cereblon/Zinc finger protein Aiolos (Homo sapiens, UniProt Q96SW2+Q9UKT9); test: In vivo protac activity at CRBN/IKZF3 in CB17-SCID mouse xenografted with human TMD8 cells assessed as degradation of IKZF3 protein in tumor at 10 to 90 mg/kg,po administration for 25 days by flow cytomtery; assay type: functional, organism-based; conditions: dose 10-90 mg/kg, time 25.0 day
[8] = molecular target: T1, Protein cereblon/Tyrosine-protein kinase BTK (Mus musculus) (UniProt P35991+Q8C7D2); test: In vivo protac activity at CRBN/BTK in BALB/c mouse assessed as residual BTK protein in blood at 3 mg/kg,po administration measured after 24 hrs by flow cytomtery relative to control
[9] = molecular target: T1, Protein cereblon/Tyrosine-protein kinase BTK (Mus musculus); test: In vivo protac activity at CRBN/BTK in BALB/c mouse assessed as residual BTK protein in blood at 10 mg/kg,po administration measured after 24 hrs by flow cytomtery relative to control
[10] = test system: TMD8; test: Antitumor activity against human TMD8 cells expressing BTK C481S mutant xenografted in CB17-SCID mouse assessed as tumor growth inhibition at 90 mg/kg,po administration for 25 days; assay type: functional; conditions: TMD8, 600 h, time 25 day, read-out: TGI
[11] = Apparent permeability across apical to basolateral side in human Caco-2 cells; assay type: ADME, cell-based
[12] = Plasma protein binding in rat; assay type: ADME, cell-free; conditions: read-out: PPB
[13] = Observed clearance in dog at 1 mg/kg,iv; assay type: ADME, organism-based, Canis lupus familiaris; conditions: in vivo
[14] = test system: Protein cereblon/Tyrosine-protein kinase BTK (Homo sapiens); test: In vivo protac activity at CRBN/BTK in CB17-SCID mouse xenografted with human TMD8 cells assessed as degradation of BTK protein in tumor at 10 to 90 mg/kg,po administration for 25 days by flow cytomtery; conditions: dose 10-90 mg/kg, time 25.0 day
[15] = Cmax in cynomolgus monkey at 10 mg/kg,po administration for 14 days; assay type: ADME, organism-based, Macaca fascicularis; parameters: dose 10 mg/kg, time 14 day, route po; conditions: in vivo
[16] = molecular target: T2, Protein cereblon/Zinc finger protein Aiolos (Macaca fascicularis) (UniProt A0A2K5UTB3+A0A2K5VJM3); test: In vivo protac activity at CRBN/IKZF3 in cynomolgus monkey assessed as degradation of IKZF3 protein at 100 mg/kg,po administration for 14 days by flow cytomtery relative to control; assay type: functional, organism-based; conditions: time 14.0 day
[17] = molecular target: T3, Cytochrome P450 3A4 (Homo sapiens, UniProt P08684); test: Time dependent inhibition of CYP3A4 (unknown origin); assay type: ADME
[18] = Lipophilicity, logD of compound at pH 7.4; assay type: physicochemical; conditions: buffer
[19] = Cmax in cynomolgus monkey at 10 mg/kg,po; assay type: ADME, organism-based, Macaca fascicularis; parameters: dose 10 mg/kg, route po; conditions: in vivo
[20] = molecular target: Protein cereblon-BTK (Macaca fascicularis) (UniProt A0A2K5UTB3+A0A7N9IGT8); test: In vivo protac activity at CRBN/BTK in cynomolgus monkey assessed as remaining BTK protein in B cells at 10 mg/kg,po administration for 1 day by flow cytomtery relative to control; assay type: functional, organism-based
[21] = Drug uptake in cynomolgus monkey plasma at po administration measured for 24 hrs; assay type: ADME, organism-based, Macaca fascicularis; conditions: in vivo
[22] = molecular target: Protein cereblon/Tyrosine-protein kinase BTK (Homo sapiens, UniProt Q06187+Q96SW2, C481S); test: PROTAC activity at CRBN/BTK C481S mutant in human TMD8 cells assessed as degradation of BTK protein incubated for 4 hrs by HTRF assay; assay type: cell-based
[23] = Observed clearance in mouse at 1 mg/kg,iv; assay type: ADME, organism-based; conditions: in vivo
[24] = molecular target: T4, Protein cereblon/Tyrosine-protein kinase BTK (Homo sapiens, UniProt Q06187+Q96SW2); test: PROTAC activity at CRBN/BTK in human TMD8 cells assessed as degradation of BTK protein incubated for 4 hrs by HTRF assay; assay type: cell-based
Target sequence in this assay (Q06187 whole entry): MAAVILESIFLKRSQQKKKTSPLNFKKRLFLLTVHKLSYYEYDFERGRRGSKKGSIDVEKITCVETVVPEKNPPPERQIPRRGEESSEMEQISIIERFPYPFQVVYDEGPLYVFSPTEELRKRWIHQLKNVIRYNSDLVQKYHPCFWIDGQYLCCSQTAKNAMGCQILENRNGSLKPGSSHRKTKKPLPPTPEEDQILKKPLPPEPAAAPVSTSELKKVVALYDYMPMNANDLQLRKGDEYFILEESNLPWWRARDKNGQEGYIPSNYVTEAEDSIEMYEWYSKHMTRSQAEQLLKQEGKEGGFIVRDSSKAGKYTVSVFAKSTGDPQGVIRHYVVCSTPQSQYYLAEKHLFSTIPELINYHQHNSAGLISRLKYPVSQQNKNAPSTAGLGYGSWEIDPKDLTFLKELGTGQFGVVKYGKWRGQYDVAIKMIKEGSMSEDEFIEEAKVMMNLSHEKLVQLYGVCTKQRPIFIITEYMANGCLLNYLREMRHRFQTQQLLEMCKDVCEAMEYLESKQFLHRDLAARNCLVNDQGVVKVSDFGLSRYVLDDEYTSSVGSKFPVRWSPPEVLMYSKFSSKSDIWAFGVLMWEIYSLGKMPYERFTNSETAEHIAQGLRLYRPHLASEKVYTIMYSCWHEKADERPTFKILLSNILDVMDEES
Target sequence in this assay (Q96SW2 whole entry): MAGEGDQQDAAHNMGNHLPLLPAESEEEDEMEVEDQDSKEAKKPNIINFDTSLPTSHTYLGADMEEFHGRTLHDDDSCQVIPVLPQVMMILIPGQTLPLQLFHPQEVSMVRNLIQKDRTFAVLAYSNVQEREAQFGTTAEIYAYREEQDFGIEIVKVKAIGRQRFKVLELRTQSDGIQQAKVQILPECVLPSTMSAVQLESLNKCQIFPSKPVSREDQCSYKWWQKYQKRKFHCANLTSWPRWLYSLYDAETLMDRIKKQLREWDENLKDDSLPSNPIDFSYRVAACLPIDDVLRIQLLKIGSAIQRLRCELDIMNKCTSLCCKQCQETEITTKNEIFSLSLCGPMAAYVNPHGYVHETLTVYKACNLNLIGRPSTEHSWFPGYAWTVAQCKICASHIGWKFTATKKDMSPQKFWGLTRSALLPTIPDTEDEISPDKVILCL

[25] = molecular target: T1, Protein cereblon/Tyrosine-protein kinase BTK (Mus musculus); test: In vivo protac activity at CRBN/BTK in BALB/c mouse assessed as residual BTK protein in blood at 30 mg/kg,po administration measured after 24 hrs by flow cytomtery relative to control
[26] = molecular target: T3, Cytochrome P450 3A4; test: Inhibition of CYP3A4 (unknown origin); assay type: ADME
[27] = molecular target: Cytochrome P450 2D6 (Homo sapiens, UniProt P10635); test: Inhibition of CYP2D6 (unknown origin); assay type: ADME
[28] = molecular target: T2, Protein cereblon/Zinc finger protein Aiolos (Macaca fascicularis); test: In vivo protac activity at CRBN/IKZF3 in cynomolgus monkey assessed as degradation of IKZF3 protein at 10 to 100 mg/kg,po administration by flow cytomtery; assay type: functional, organism-based; conditions: dose 10-100 mg/kg
[29] = molecular target: T4, Protein cereblon/Tyrosine-protein kinase BTK; test: PROTAC activity at CRBN/BTK in human PBMC cells asessed as degradation of BTK protein at 50 nM incubated for 4 hrs by proteomics assay based LC-MS/MS analysis; assay type: cell-based
Target sequence in this assay (Q06187 2-659 limits assumed): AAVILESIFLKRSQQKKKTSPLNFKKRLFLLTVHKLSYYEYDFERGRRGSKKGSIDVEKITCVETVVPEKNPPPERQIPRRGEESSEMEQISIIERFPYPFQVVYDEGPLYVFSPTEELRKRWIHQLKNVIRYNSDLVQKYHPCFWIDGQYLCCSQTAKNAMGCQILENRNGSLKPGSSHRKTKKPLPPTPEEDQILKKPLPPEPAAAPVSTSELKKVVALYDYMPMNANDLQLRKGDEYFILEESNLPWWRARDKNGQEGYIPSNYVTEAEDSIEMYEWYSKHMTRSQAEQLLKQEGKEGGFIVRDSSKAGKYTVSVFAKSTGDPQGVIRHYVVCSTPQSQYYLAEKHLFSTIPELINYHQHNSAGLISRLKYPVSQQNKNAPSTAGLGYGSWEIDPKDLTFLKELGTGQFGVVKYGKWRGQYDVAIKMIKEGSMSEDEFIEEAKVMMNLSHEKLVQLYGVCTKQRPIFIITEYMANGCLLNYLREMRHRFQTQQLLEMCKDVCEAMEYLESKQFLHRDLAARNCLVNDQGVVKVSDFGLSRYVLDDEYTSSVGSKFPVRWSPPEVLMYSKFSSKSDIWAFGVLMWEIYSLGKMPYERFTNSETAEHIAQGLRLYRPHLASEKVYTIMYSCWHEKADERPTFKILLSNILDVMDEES
Target sequence in this assay (Q96SW2 whole entry partner): as the sequence (Q96SW2 whole entry) above

[30] = AUC in dog at 10 mg/kg,po; assay type: ADME, organism-based, Canis lupus familiaris; parameters: dose 10 mg/kg, route po; conditions: in vivo

T1 sequence (P35991 whole entry, looked up): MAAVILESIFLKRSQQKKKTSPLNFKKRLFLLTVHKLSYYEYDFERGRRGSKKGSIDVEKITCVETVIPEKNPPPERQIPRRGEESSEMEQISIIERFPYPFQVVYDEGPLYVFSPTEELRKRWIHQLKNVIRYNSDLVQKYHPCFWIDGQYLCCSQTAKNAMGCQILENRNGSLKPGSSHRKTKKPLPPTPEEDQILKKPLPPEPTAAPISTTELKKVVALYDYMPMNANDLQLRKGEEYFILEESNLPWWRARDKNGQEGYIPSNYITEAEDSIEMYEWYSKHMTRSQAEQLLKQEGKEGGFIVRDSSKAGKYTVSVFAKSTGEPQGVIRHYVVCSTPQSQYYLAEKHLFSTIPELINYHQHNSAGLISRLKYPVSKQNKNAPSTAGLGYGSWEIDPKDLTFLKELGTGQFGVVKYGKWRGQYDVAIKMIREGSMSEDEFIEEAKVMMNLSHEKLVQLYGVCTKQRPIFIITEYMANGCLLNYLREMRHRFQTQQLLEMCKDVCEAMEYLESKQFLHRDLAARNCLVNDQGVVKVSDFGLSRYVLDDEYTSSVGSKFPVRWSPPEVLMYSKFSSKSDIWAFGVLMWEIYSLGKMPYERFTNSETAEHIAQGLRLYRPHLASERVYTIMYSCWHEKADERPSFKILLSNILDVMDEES
T1 sequence (Q8C7D2 whole entry, looked up): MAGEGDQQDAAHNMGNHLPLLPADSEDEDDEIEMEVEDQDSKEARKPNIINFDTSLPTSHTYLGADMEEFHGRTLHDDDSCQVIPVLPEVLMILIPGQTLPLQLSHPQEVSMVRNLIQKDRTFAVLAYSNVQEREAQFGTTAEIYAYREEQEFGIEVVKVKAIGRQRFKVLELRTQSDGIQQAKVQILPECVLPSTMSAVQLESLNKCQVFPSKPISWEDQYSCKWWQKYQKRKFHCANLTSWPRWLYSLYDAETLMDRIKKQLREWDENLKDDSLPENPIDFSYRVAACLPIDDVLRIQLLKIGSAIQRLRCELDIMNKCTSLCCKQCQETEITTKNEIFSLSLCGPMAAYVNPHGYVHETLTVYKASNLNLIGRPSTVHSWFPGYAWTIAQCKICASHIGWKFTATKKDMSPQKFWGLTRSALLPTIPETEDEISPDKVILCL
T2 sequence (A0A2K5UTB3 1-488): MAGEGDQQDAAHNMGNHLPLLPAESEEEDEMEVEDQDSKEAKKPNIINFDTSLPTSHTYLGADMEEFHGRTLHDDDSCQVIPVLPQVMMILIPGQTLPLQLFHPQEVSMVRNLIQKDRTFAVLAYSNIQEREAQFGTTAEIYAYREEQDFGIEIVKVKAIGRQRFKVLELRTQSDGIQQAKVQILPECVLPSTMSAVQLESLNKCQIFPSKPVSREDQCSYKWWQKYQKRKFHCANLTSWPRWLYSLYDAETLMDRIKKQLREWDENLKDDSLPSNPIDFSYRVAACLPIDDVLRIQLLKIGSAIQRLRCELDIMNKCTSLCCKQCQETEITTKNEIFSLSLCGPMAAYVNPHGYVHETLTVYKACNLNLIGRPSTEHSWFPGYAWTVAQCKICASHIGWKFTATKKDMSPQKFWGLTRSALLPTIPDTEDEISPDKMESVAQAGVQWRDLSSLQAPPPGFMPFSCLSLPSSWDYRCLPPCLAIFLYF
T2 sequence (A0A2K5VJM3 entry or part of it partner): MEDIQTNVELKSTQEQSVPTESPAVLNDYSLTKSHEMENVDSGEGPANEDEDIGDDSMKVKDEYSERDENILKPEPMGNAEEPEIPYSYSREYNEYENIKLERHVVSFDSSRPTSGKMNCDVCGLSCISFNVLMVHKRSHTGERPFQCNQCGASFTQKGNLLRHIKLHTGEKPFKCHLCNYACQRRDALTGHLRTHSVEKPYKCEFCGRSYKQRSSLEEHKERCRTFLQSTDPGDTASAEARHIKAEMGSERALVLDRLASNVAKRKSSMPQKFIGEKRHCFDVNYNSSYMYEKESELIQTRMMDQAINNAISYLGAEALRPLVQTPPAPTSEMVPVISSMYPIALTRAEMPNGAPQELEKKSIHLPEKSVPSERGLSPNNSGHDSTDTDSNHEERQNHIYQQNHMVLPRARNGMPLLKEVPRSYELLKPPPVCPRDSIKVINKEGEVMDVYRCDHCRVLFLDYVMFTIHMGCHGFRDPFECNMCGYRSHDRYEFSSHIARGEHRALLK
T3 sequence (P08684 whole entry): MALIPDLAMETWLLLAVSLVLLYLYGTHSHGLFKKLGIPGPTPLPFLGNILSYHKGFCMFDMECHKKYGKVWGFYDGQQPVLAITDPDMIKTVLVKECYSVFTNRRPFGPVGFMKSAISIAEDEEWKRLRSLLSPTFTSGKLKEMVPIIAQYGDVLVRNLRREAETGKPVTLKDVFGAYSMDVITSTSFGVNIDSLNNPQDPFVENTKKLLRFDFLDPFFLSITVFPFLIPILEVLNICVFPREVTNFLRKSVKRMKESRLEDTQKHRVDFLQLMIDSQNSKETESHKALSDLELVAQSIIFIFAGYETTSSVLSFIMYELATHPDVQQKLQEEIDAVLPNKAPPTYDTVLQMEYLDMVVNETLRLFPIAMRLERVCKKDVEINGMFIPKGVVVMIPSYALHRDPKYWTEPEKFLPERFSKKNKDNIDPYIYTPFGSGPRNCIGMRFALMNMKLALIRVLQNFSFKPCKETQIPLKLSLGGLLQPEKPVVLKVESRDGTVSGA
Chain of Protein cereblon/Zinc finger protein Aiolos (Q96SW2 whole entry, looked up): as the sequence (Q96SW2 whole entry) above
Chain of Protein cereblon/Zinc finger protein Aiolos (Q9UKT9 whole entry, looked up): as the sequence (A0A2K5VJM3 entry or part of it partner) above, with V8A, T20A, P23A, I71V, P74S, P352S, P409S, V433I, I439V counted along it
Chain of Cytochrome P450 2D6 (P10635 whole entry): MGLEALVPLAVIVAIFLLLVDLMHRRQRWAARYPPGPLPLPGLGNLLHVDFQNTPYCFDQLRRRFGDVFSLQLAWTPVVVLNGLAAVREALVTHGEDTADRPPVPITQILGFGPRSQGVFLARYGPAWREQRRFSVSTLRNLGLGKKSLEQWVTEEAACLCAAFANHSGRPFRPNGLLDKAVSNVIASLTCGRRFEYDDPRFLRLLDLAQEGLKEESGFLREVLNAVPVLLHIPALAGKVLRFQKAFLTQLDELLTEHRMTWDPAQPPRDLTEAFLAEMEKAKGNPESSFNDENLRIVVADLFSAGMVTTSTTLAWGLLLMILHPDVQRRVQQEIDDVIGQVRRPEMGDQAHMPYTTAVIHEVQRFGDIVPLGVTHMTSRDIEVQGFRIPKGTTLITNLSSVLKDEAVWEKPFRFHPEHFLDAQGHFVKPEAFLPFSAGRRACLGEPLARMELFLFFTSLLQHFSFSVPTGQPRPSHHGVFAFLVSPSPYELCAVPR

SMILES: NC(=O)c1ncc(N2CCCCC2)nc1Nc1ccc(C2CCN(C[C@H]3CCN(c4ccc5c(c4)C(=O)N(C4CCC(=O)NC4=O)C5=O)C3)CC2)cc1 (stereo not given in full) [ZELEBRUDOMIDE]
- Activity [1]: Active
- Activity [2]: Active
- inhibition in vivo at 30 mg/kg [3]: 43%
- Cmax [4]: 1300 nM
- Kd [5]: 45 nM
- AUC(0-t) at 24 h [6]: 267 ng·h/mL
- Activity [7]: Active
- residual activity [8]: 36%
- residual activity [9]: 21%
- inhibition in vivo at 90 mg/kg [10]: 59%
- Papp A→B [11]: < 0.02 ×10⁻⁶ cm/s
- fraction unbound [12]: < 0.015
- clearance [13]: 18.4 mL/min/kg
- Activity [14]: Active
- Cmax [15]: 25.4 ng/mL
- Activity [16]: 43%
- TDI [17]: Not Active
- logD [18]: 3.1
- Cmax [19]: 11 nM
- Activity [20]: 11%
- Drug uptake [21]: Dose-Dependent Effect
- DC50 [22]: 31 nM
- clearance [23]: 5.2 mL/min/kg
- DC50 [24]: 4.5 nM
- residual activity [25]: 12%
- IC50 [26]: > 30000 nM
- IC50 [27]: > 30000 nM
- Activity [28]: inactive
- Activity [29]: Active
- AUC [30]: 0.13 µM·h
